Test results from patent US20160122320A1, “USEFUL COMBINATIONS OF MONOBACTAM ANTIBIOTICS WITH BETA-LACTAMASE INHIBITORS” (Basilea Pharmaceutica AG, priority 2005, published 2016).
Structures can show the parent of a compound that is named as a salt.

How the values were obtained:
Assay in all cases: MIC, NCCLS broth microdilution
Type in all cases: cell-based
[1] = test system: Acinetobacter sp. J2; conditions: for MIC of antibiotic / MIC of antibiotic at fixed inhibitor concentration of 4 mg/L: Acinetobacter baumannii J2; for MIC of antibiotic: antibiotic alone, no inhibitor; for MIC of antibiotic at fixed inhibitor concentration (4 mg/L): Acinetobacter sp. J2, MIC of antibiotic compound 1 with the labelled bridged monobactam of formula II and clavulanate, 4 mg/L each
[2] = test system: Pseudomonas aeruginosa MK1184; conditions: for MIC of antibiotic: antibiotic alone, no inhibitor; for MIC of antibiotic at fixed inhibitor concentration (4 mg/L): MIC of antibiotic compound 1 with the labelled bridged monobactam of formula II and clavulanate, 4 mg/L each
[3] = test system: Pseudomonas aeruginosa 1973E; conditions: for MIC of antibiotic: antibiotic alone, no inhibitor; for MIC of antibiotic at fixed inhibitor concentration (4 mg/L): MIC of antibiotic compound 1 with the labelled bridged monobactam of formula II and clavulanate, 4 mg/L each
How it was run: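 MIC read by eye as the lowest concentration giving no visible growth after overnight incubation (30° C. or 37° C.), following NCCLS M7-A5 microdilution with ≤1% final DMSO. For combinations, partner compounds (formula II, III-XIII) were fixed at 4 μg/mL each while formula I compounds were titrated.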

[4] = test system: Enterobacter cloacae P99; conditions: for MIC of antibiotic: antibiotic alone, no inhibitor; for MIC of antibiotic at fixed inhibitor concentration (4 mg/L): MIC of antibiotic compound 1 with the labelled bridged monobactam of formula II and clavulanate, 4 mg/L each
[5] = test system: Klebsiella pneumoniae CF104; conditions: for MIC of antibiotic: antibiotic alone, no inhibitor; for MIC of antibiotic at fixed inhibitor concentration (4 mg/L): MIC of antibiotic compound 1 with the labelled bridged monobactam of formula II and clavulanate, 4 mg/L each
[6] = test system: Serratia marcescens S6; conditions: for MIC of antibiotic: antibiotic alone, no inhibitor; for MIC of antibiotic at fixed inhibitor concentration (4 mg/L): MIC of antibiotic compound 1 with the labelled bridged monobactam of formula II and clavulanate, 4 mg/L each
Method: Antimicrobial activity of the compounds and of their combinations was determined against a selection of organisms according to the standard procedures described by the National Committee for Clinical Laboratory Standards (National Committee for Clinical Laboratory. Standards (2000). Methods for Dilution Antimicrobial Susceptibility Tests for Bacteria That Grow Aerobically-Fifth Edition: Approved Standard M7-A5. NCCLS, Wayne, Pa., USA).
In all cases the final concentration of DMSO incubated with the bacteria is less than or equal to 1%. […] Plates were incubated overnight at an appropriate temperature (30° C. or 37° C.) and optical densities assessed by eye. The MIC value is defined as the lowest compound concentration completely inhibiting visible growth of the test organism. When combinations between compounds of formula I with compounds of formula II and are evaluated the compounds of formula I are tested in dilution series as described above while the compounds of formula II and III-XIII were present in all wells at a constant concentration of 4 μg/mL each.

[7] = test system: Stenotrophomonas malthophilia 1AC736; conditions: for MIC of antibiotic / MIC of antibiotic at fixed inhibitor concentration of 4 mg/L: Stenotrophomonas maltophilia 1AC736; for MIC of antibiotic: antibiotic alone, no inhibitor; for MIC of antibiotic at fixed inhibitor concentration (4 mg/L): Stenotrophomonas malthophilia 1AC736, MIC of antibiotic compound 1 with the labelled bridged monobactam of formula II and clavulanate, 4 mg/L each

Structure (SMILES)	MIC of antibiotic [1] [µg/mL]	MIC of antibiotic at fixed inhibitor concentration of 4 mg/L ([1]; with 102 and clavulanate) [µg/mL]	MIC of antibiotic [2] [µg/mL]	MIC of antibiotic at fixed inhibitor concentration of 4 mg/L ([2]; with 102 and clavulanate) [µg/mL]	MIC of antibiotic [3] [µg/mL]	MIC of antibiotic at fixed inhibitor concentration of 4 mg/L ([3]; with 102 and clavulanate) [µg/mL]	MIC of antibiotic [4] [µg/mL]	MIC of antibiotic at fixed inhibitor concentration of 4 mg/L ([4]; with 102 and clavulanate) [µg/mL]	MIC of antibiotic [5] [µg/mL]	MIC of antibiotic at fixed inhibitor concentration of 4 mg/L ([5]; with 102 and clavulanate) [µg/mL]	MIC of antibiotic [6] [µg/mL]	MIC of antibiotic at fixed inhibitor concentration of 4 mg/L ([6]; with 102 and clavulanate) [µg/mL]	MIC of antibiotic [7] [µg/mL]	MIC of antibiotic at fixed inhibitor concentration of 4 mg/L ([7]; with 102 and clavulanate) [µg/mL]	MIC of antibiotic at fixed inhibitor concentration (4 mg/L) [1] [µg/mL]	MIC of antibiotic at fixed inhibitor concentration (4 mg/L) [2] [µg/mL]	MIC of antibiotic at fixed inhibitor concentration (4 mg/L) [3] [µg/mL]	MIC of antibiotic at fixed inhibitor concentration (4 mg/L) [4] [µg/mL]	MIC of antibiotic at fixed inhibitor concentration (4 mg/L) [5] [µg/mL]	MIC of antibiotic at fixed inhibitor concentration (4 mg/L) [6] [µg/mL]	further results
C[C@H]1[C@H](NC(=O)/C(=N\OCc2cc(=O)c(O)cn2C)c2csc(N)n2)C(=O)N1S(=O)(=O)O [Compound 6, (3S,4S)-3-{(2Z)-2-(2-amino(1,3-thiazol-4-yl))-3-[(5-hydroxy-1-methyl-4-oxo(2-hydropyridyl))methoxy]-3-azaprop-2-enoylamino}-4-methyl-2-oxoazetidinesulfonic acid]	>32	>32	>32	>32	>32	>32	16	8	>32	<0.06	4	0.5	8	4	–	–	–	–	–	–	MIC of antibiotic at fixed inhibitor concentration of 4 mg/L ([1]; with 206 and clavulanate): 32 µg/mL; MIC of antibiotic at fixed inhibitor concentration of 4 mg/L ([1]; with 315 and clavulanate): >32 µg/mL; MIC of antibiotic at fixed inhibitor concentration of 4 mg/L ([2]; with 206 and clavulanate): >32 µg/mL; MIC of antibiotic at fixed inhibitor concentration of 4 mg/L ([2]; with 315 and clavulanate): >32 µg/mL; MIC of antibiotic at fixed inhibitor concentration of 4 mg/L ([3]; with 206 and clavulanate): >32 µg/mL; MIC of antibiotic at fixed inhibitor concentration of 4 mg/L ([3]; with 315 and clavulanate): >32 µg/mL; MIC of antibiotic at fixed inhibitor concentration of 4 mg/L ([4]; with 206 and clavulanate): 16 µg/mL; MIC of antibiotic at fixed inhibitor concentration of 4 mg/L ([4]; with 315 and clavulanate): 4 µg/mL; MIC of antibiotic at fixed inhibitor concentration of 4 mg/L ([5]; with 206 and clavulanate): 0.5 µg/mL; MIC of antibiotic at fixed inhibitor concentration of 4 mg/L ([5]; with 315 and clavulanate): 0.5 µg/mL; MIC of antibiotic at fixed inhibitor concentration of 4 mg/L ([6]; with 206 and clavulanate): 4 µg/mL; MIC of antibiotic at fixed inhibitor concentration of 4 mg/L ([6]; with 315 and clavulanate): 4 µg/mL; MIC of antibiotic at fixed inhibitor concentration of 4 mg/L ([7]; with 206 and clavulanate): 4 µg/mL; MIC of antibiotic at fixed inhibitor concentration of 4 mg/L ([7]; with 315 and clavulanate): 2 µg/mL
NC(=O)CNC(=O)c1ccc(NC(=O)N2CC[C@@H]3[C@H]2C(=O)N3S(=O)(=O)[O-])cc1.[Na+] [Compound 312, Sodium(1S,5R)-2-(N-{4-[N-(carbamoylmethyl)carbamoyl]phenyl}carbamoyl)-7-oxo-2,6-diazabicyclo[3.2.0]heptane-6-sulfonate]	–	–	–	–	–	–	–	–	–	–	–	–	–	–	>32	>32	8	8	4	0.5	MIC of antibiotic at fixed inhibitor concentration (4 mg/L) [7]: 0.125 µg/mL
CC1(C)C(NC(=O)C(=NOCc2cc(=O)c(O)cn2O)c2nsc(N)n2)C(=O)N1OS(=O)(=O)O (centres unmarked) [Compound 32]	>32	4	4	4	16	8	32	8	>32	1	0.5	0.25	0.5	0.5	–	–	–	–	–	–	MIC of antibiotic at fixed inhibitor concentration of 4 mg/L ([1]; with 324 and clavulanate): 8 µg/mL; MIC of antibiotic at fixed inhibitor concentration of 4 mg/L ([2]; with 324 and clavulanate): 4 µg/mL; MIC of antibiotic at fixed inhibitor concentration of 4 mg/L ([3]; with 324 and clavulanate): 8 µg/mL; MIC of antibiotic at fixed inhibitor concentration of 4 mg/L ([4]; with 324 and clavulanate): 4 µg/mL; MIC of antibiotic at fixed inhibitor concentration of 4 mg/L ([5]; with 324 and clavulanate): 2 µg/mL; MIC of antibiotic at fixed inhibitor concentration of 4 mg/L ([6]; with 324 and clavulanate): 0.25 µg/mL; MIC of antibiotic at fixed inhibitor concentration of 4 mg/L ([7]; with 324 and clavulanate): 0.5 µg/mL
CC(=O)Nc1cccc(NC(=O)N2CC[C@@H]3[C@H]2C(=O)N3S(=O)(=O)[O-])c1.[Na+] [Compound 307, Sodium(1S,5R)-2-{N-[3-(acetylamino)phenyl]carbamoyl}-7-oxo-2,6-diazabicyclo[3.2.0]heptane-6-sulfonate]	–	–	–	–	–	–	–	–	–	–	–	–	–	–	>32	>32	8	32	2	0.25	MIC of antibiotic at fixed inhibitor concentration (4 mg/L) [7]: 0.125 µg/mL
NC(=O)c1ccc[n+](CC(=O)N2CC[C@@H]3[C@H]2C(=O)N3S(=O)(=O)[O-])c1 [Compound 102, (1S,5R)-2-[2-β-carbamoylpyridinium)acetyl]-7-oxo-2,6-diazabicyclo[3.2.0]heptane-6-sulfonate, inner salt]	–	–	–	–	–	–	–	–	–	–	–	–	–	–	4	4	2	4	1	0.25	MIC of antibiotic at fixed inhibitor concentration (4 mg/L) [7]: 0.125 µg/mL
NC(=O)OC[C@@H]1[C@H](NC(=O)/C(=N\OCc2cc(=O)c(O)cn2O)c2nsc(N)n2)C(=O)N1OS(=O)(=O)O [Compound 48, ((2S,3S)-3-{(2Z)-2-(5-amino(1,2,4-thiadiazol-3-yl))-3-[(1,5-dihydroxy-4-oxo(2-hydropyridyl))methoxy]-3-azaprop-2-enoylamino}-1-(hydroxysulfonyloxy)-4-oxoazetidin-2-yl)methyl aminooate]	>32	>32	4	2	8	4	>32	32	>32	2	8	2	4	4	–	–	–	–	–	–	MIC of antibiotic at fixed inhibitor concentration of 4 mg/L ([1]; with 324 and clavulanate): >32 µg/mL; MIC of antibiotic at fixed inhibitor concentration of 4 mg/L ([2]; with 324 and clavulanate): 2 µg/mL; MIC of antibiotic at fixed inhibitor concentration of 4 mg/L ([3]; with 324 and clavulanate): 8 µg/mL; MIC of antibiotic at fixed inhibitor concentration of 4 mg/L ([4]; with 324 and clavulanate): 16 µg/mL; MIC of antibiotic at fixed inhibitor concentration of 4 mg/L ([5]; with 324 and clavulanate): 4 µg/mL; MIC of antibiotic at fixed inhibitor concentration of 4 mg/L ([6]; with 324 and clavulanate): 2 µg/mL; MIC of antibiotic at fixed inhibitor concentration of 4 mg/L ([7]; with 324 and clavulanate): 2 µg/mL
O=C(NCc1ccc(O)c(O)c1)N1CC[C@@H]2[C@H]1C(=O)N2S(=O)(=O)[O-].[Na+] [Compound 303, Sodium(1S,5R)-2-{N-[(3,4-dihydroxyphenyl)methyl]carbamoyl}-7-oxo-2,6-diazabicyclo[3.2.0]heptane-6-sulfonate]	–	–	–	–	–	–	–	–	–	–	–	–	–	–	>32	>32	4	32	2	0.5	MIC of antibiotic at fixed inhibitor concentration (4 mg/L) [7]: 0.125 µg/mL
NC(=O)OCC1C(NC(=O)C(=NOCc2cc(=O)c(O)cn2O)c2nc(N)sc2Cl)C(=O)N1OS(=O)(=O)O (centres unmarked) [Compound 47]	>32	>32	4	2	8	4	>32	16	>32	4	2	2	1	1	–	–	–	–	–	–	MIC of antibiotic at fixed inhibitor concentration of 4 mg/L ([1]; with 324 and clavulanate): >32 µg/mL; MIC of antibiotic at fixed inhibitor concentration of 4 mg/L ([2]; with 324 and clavulanate): 4 µg/mL; MIC of antibiotic at fixed inhibitor concentration of 4 mg/L ([3]; with 324 and clavulanate): 8 µg/mL; MIC of antibiotic at fixed inhibitor concentration of 4 mg/L ([4]; with 324 and clavulanate): 32 µg/mL; MIC of antibiotic at fixed inhibitor concentration of 4 mg/L ([5]; with 324 and clavulanate): 2 µg/mL; MIC of antibiotic at fixed inhibitor concentration of 4 mg/L ([6]; with 324 and clavulanate): 2 µg/mL; MIC of antibiotic at fixed inhibitor concentration of 4 mg/L ([7]; with 324 and clavulanate): 1 µg/mL
